In patent US9302014B2, “Cell-penetrating peptides having a central hydrophobic domain” (Medical Research Council, priority 2011, dated 2016):
Non-standard residues stand in square brackets, D forms with d. No end group written: not given here. Ahx = NCCCCCC(=O)O; βAla = NCCC(=O)O

System: dystrophin exon 23
Test: Exon skipping in differentiated mouse H2K mdx myotubes (nested RT-PCR, densitometry)
Format: cell-based
Settings: Example 5, conjugate 0.125 to 2.0 μM, no transfection agent
Description: The exon skipping potential of Pip6-PMO conjugates was evaluated in differentiated mouse H2K mdx myotubes in the absence of any transfection agent (FIG. 1) at concentrations ranging from 0.125 μM to 1 μM. […] In the case of Pip6 sequences, the flanking arginine-rich sequences are identical (with the exception of Pip6e, which is identical except for one arginine immediately preceding the core which is displaced into the second position of the core). […] Note that we have previously shown that major changes in in vitro exon skipping activities are correlated instead with the total numbers of arginine residues [Saleh, A. F., et al., Synthesis and splice-redirecting activity of branched, arginine-rich peptide dendrimer conjugates of peptide nucleic acid oligonucleotides. Bioconjug Chem, 2010. 21(10): p. 1902-11.].
H2K mdx myotubes are derived from H2K mdx myoblasts obtained from the EDL muscle of a male H2K mdx f2 mouse. The cells are dystrophin deficient and conditionally immortal due to thermolabile simian virus 40 large tumor antigen (tsA58) expression. The myoblasts proliferate at 33° C. (10% CO2) in rich culture and differentiate into myotubes at 37° C. in media with horse serum.
H2K mdx myotubes were prepared and incubated with peptide-PNA and peptide-PMO conjugates in the absence of any transfection agent by the methods described previously (Wang, Q, Yin, H, et aL (2010) In vitro evaluation of novel antisense oligonucleotides is predictive of in vivo exon skipping activity for Duchenne muscular dystrophy) but with minor variations.
Myotubes were obtained from confluent H2K mdx cells seeded in gelatine coated 24-well plates following 2 days of serum deprivation (DMEM with 5% horse serum). The conjugates were incubated with myotubes for 4 h in 0.5 mL OptiMEM and then replaced by 1 mL of DMEM/5% horse serum media for further incubation. After 20 h myotubes were washed twice with PBS and total RNA was extracted with 0.5 mL of TRI Reagent (Sigma, UK). RNA preparations were treated with RNAse free DNAse (2U) and Proteinase K ([…]) prior to RT-PCR analysis. RT-PCR was carried out in 25 μL with 1 μg RNA template using SuperScript III One-Step RTPCR System with Platinum Taq DNA polymerase (Invitrogen) primed by forward primer 5′CAG AAT TCT GCC AAT TGC TGAG3′ [SEQ ID NO:312] and reverse primer 5′TTC TTC AGC TTG TGT CAT CC3′ [SEQ ID NO:313]. The initial cDNA synthesis was performed at 55° C. for 30 min followed by 30 cycles of 95° C. for 30 sec, 55° C. for 1 min and 68° C. for 80 sec. RT PCR product ([…]) was then used as the template for secondary PCR performed in 25 μL with 0.5 U Super TAQ polymerase (HT Biotechnologies) and primed by forward primer 5′CCCAGTCTACCACCCTATCAG AGC3′ [SEQ ID NO:314] and reverse primer 5′CCT GCC TTT AAG GCT TCC TT3′ [SEQ ID NO:315]. The cycling conditions were 95° C. for 1 min, 57° C. for 1 min and 72° C. for 80 sec for 25 cycles. Products were examined by 2% agarose gel and after scanning using Gene Tools Analysis Software (SynGene) the relative amount of exon 23 skipping was expressed as a percentage at a given concentration of conjugates averaged over duplicates of three experiments.
H2K mdx myotubes were prepared and incubated with peptide-PMO conjugates in the absence of any transfection agent at concentrations of 0.125, 0.25, 0.5 and 1.0 μM by the method described previously [Yin, H., et al., Pip5 transduction peptides direct high efficiency oligonucleotide-mediated dystrophin exon skipping in heart and phenotypic correction in mdx mice. Mol Ther, 2011. 19(7): p. 1295-303.]. The products of nested RT-PCR from total isolated RNA were examined by electrophoresis on a 2% agarose gel. Quantification of Δ23 transcript levels was calculated using densitometry. […]

Pip9d2: Pip9 series peptide (SEQ ID Nos 320-328) conjugated to PMODMD (R[Ahx]RR[βAla]RFQILY[βAla]R[Ahx]R[βAla]; also: conjugated to PMO (PMODMD))
exon skipping activity (Δ23 skipping) in mdx muscle cells: high exon skipping activity
